# Experimental data as given in ChEMBL document CHEMBL4765442, “Anti-Giardia Drug Discovery: Current Status and Gut Feelings” (J Med Chem, 2020).
# What was measured:
# Giardia intestinalis [1] = test: Antigiardial activity against Giardia duodenalis GS/M-83-H7 (ATCC 50581) incubated for 3 days by fluorescence method; type: functional, organism-based; conditions: 72 h
# Giardia intestinalis [2] = test: Antigiardial activity against Giardia duodenalis WB (ATCC 30957) incubated for 3 days by fluorescence method; type: functional, organism-based; conditions: WB ATCC 30957, 72 h
# Giardia intestinalis [3] = test: Antigiardial activity against Giardia duodenalis G1 incubated for 3 days by fluorescence method; type: functional, organism-based; conditions: G1, 72 h
# Giardia intestinalis [4] = test: Antigiardial activity against Giardia duodenalis Ah1 incubated for 3 days by fluorescence method; type: functional, organism-based; conditions: Ah1, 72 h
# Giardia intestinalis [5] = test: Antigiardial activity against Giardia duodenalis Ah2 incubated for 3 days by fluorescence method; type: functional, organism-based; conditions: Ah2, 72 h
# Giardia intestinalis [6] = test: Antigiardial activity against Giardia duodenalis Ac1 incubated for 3 days by fluorescence method; type: functional, organism-based; conditions: Ac1, 72 h
# Giardia intestinalis [7] = test: Antigiardial activity against Giardia duodenalis Ac2 incubated for 3 days by fluorescence method; type: functional, organism-based; conditions: Ac2, 72 h
# Giardia intestinalis [8] = test: Antigiardial activity against Giardia duodenalis Ec1 incubated for 3 days by fluorescence method; type: functional, organism-based; conditions: Ec1, 72 h
# Giardia intestinalis [9] = test: Antigiardial activity against Giardia duodenalis Ec2 incubated for 3 days by fluorescence method; type: functional, organism-based; conditions: Ec2, 72 h
# Giardia intestinalis [10] = test: Antigiardial activity against Giardia lamblia WB (ATCC 30957) incubated for 3 days by [3H]thymidine incorporation based assay; type: functional, organism-based; conditions: Giardia duodenalis
# [11] = Half-life of the compound; type: physicochemical
# Giardia intestinalis [12] = test: Antigiardial activity against Giardia intestinalis IMSS:0696:1 incubated for 48 hrs followed by wash out by hemocytometric counting method; type: functional, organism-based; conditions: Giardia duodenalis, IMSS:0696:1, 48 h
# Giardia intestinalis [13] = test: Antimicrobial activity against Giardia lamblia BRIS/87/HEPU/713 trophozoites measured after 48 hrs by BacTiter-Glo cell viability assay; type: functional, organism-based; conditions: Giardia duodenalis, BRIS/87/HEPU/713, 48 h
# [14] = Selectivity ratio of CC50 for human HeLa cells incubated for 2 days by alamarBlue reagent to IC50 for Giardia lamblia BRIS/87/HEPU/713 measured after 48 hrs by BacTiter-Glo cell viability assay; type: toxicity; conditions: read-out: Ratio CC50/IC50
# Giardia intestinalis [15] = test: Antimicrobial activity against Giardia lamblia BRIS/83/HEPU/106 trophozoites measured after 2 days by BacTiter-Glo cell viability assay; type: functional, organism-based; conditions: Giardia duodenalis, BRIS/83/HEPU/106, 48 h
# Giardia intestinalis [16] = test: Antimicrobial activity against Giardia lamblia 713M3 trophozoites measured after 2 days by BacTiter-Glo cell viability assay; type: functional, organism-based; conditions: Giardia duodenalis, 713M3, 48 h
# Giardia intestinalis [17] = test: Antimicrobial activity against Giardia lamblia WB-M2 trophozoites measured after 2 days by BacTiter-Glo cell viability assay; type: functional, organism-based; conditions: Giardia duodenalis, WB-M2, 48 h
# [18] = Selectivity ratio of CC50 for human HeLa cells incubated for 2 days by alamarBlue reagent to IC50 for Giardia lamblia BRIS/83/HEPU/106 measured after 48 hrs by BacTiter-Glo cell viability assay; type: toxicity; conditions: read-out: Ratio CC50/IC50
# [19] = Selectivity ratio of CC50 for human HeLa cells incubated for 2 days by alamarBlue reagent to IC50 for Giardia lamblia 713M3 measured after 48 hrs by BacTiter-Glo cell viability assay; type: toxicity; conditions: read-out: Ratio CC50/IC50
# [20] = Selectivity ratio of CC50 for human HeLa cells incubated for 2 days by alamarBlue reagent to IC50 for Giardia lamblia WB-M2 measured after 48 hrs by BacTiter-Glo cell viability assay; type: toxicity; conditions: time 2 day, read-out: Ratio CC50/IC50
# [21] = Selectivity ratio of EC50 for Giardia lamblia WB-M2 trophozoites to EC50 for Giardia lamblia BRIS/87/HEPU/713 trophozoites; type: functional
# [22] = Selectivity ratio of EC50 for Giardia lamblia 713-M3 trophozoites to EC50 for Giardia lamblia BRIS/87/HEPU/713 trophozoites; type: functional
# Giardia intestinalis [23] = test: Antigiardial activity against Giardia lamblia incubated for 48 hrs by ATPLite reagent based luminescence assay; type: functional, organism-based; conditions: Giardia duodenalis
# Giardia intestinalis [24] = test: Antigiardial activity against Giardia lamblia 713M3 trophozoites incubated for 3 days by microscopic method; type: functional, Giardia duodenalis; conditions: time 3 day
# Giardia intestinalis [25] = test: Antigiardial activity against Giardia lamblia GS/H7 trophozoites incubated for 3 days by microscopic method; type: functional, Giardia duodenalis; conditions: time 3 day
smiles,measurement,setting,value
CCS(=O)(=O)CCn1c([N+](=O)[O-])cnc1C [TINIDAZOLE],IC50,Giardia intestinalis [1],0.3 µM
same,IC50,Giardia intestinalis [2],0.3 µM
same,IC50,Giardia intestinalis [3],0.3 µM
same,IC50,Giardia intestinalis [4],0.3 µM
same,IC50,Giardia intestinalis [5],0.3 µM
same,IC50,Giardia intestinalis [6],0.3 µM
same,IC50,Giardia intestinalis [7],0.3 µM
same,IC50,Giardia intestinalis [8],0.3 µM
same,IC50,Giardia intestinalis [9],0.3 µM
same,IC50,Giardia intestinalis [10],0.3 µM
same,half-life,[11],12 h
Cc1ncc([N+](=O)[O-])n1CCOC(=O)Nc1ccccc1,IC50,Giardia intestinalis [12],0.5 µM
CN(Cc1ccccc1)Cc1cn(CCCCCC(=O)Nc2ncc([N+](=O)[O-])s2)nn1,IC50,Giardia intestinalis [13],0.1 µM
same,selectivity ratio at 48 h,[14],> 500
same,IC50,Giardia intestinalis [15],0.1 µM
same,IC50,Giardia intestinalis [16],0.1 µM
same,IC50,Giardia intestinalis [17],6.5 µM
same,selectivity ratio at 48 h,[18],> 8
same,selectivity ratio at 48 h,[19],> 8
same,selectivity ratio at 48 h,[20],> 8
same,Ratio EC50,[21],65
same,Ratio EC50,[22],20
Cc1ncc([N+](=O)[O-])n1CC(C)OC(=O)Nc1ccc(F)cc1 (configuration not stated),IC50,Giardia intestinalis [12],0.5 µM
CC(=O)Oc1ccccc1C(=O)Nc1ncc([N+](=O)[O-])s1 [NITAZOXANIDE],half-life,[11],7.3 h
CCN(CC)C(=S)SSC(=S)N(CC)CC,IC50,Giardia intestinalis [23],0.9 µM
same,MLC,Giardia intestinalis [24],0.8 µM
same,MLC,Giardia intestinalis [25],1.5 µM
CC(=O)c1ccc(-c2cn(CCn3c([N+](=O)[O-])cnc3/C=C/c3ccco3)nn2)cc1,IC50,Giardia intestinalis [13],0.003 µM
same,selectivity ratio at 48 h,[14],> 16800
O=C(CCCCCn1cc(C2CC2)nn1)Nc1ncc([N+](=O)[O-])s1,IC50,Giardia intestinalis [13],0.1 µM
same,selectivity ratio at 48 h,[14],> 500
same,IC50,Giardia intestinalis [15],0.1 µM
same,IC50,Giardia intestinalis [16],0.1 µM
same,IC50,Giardia intestinalis [17],1.8 µM
same,selectivity ratio at 48 h,[18],> 27
same,selectivity ratio at 48 h,[19],> 27
same,selectivity ratio at 48 h,[20],> 27
